Experimental data published in ChEMBL document CHEMBL3286383, “4-Benzofuranyloxynicotinamide derivatives are novel potent and orally available TGR5 agonists” (Eur J Med Chem, 2014).

Legend:
[1] = Efflux ratio of permeability from apical to basolateral side over basolateral to apical side of human Caco2 cells up to 95 mins by LC-MS/MS analysis; settings: Caco-2
[2] = Apparent permeability of the compound from basolateral to apical side of human Caco2 cells up to 95 mins by LC-MS/MS analysis; settings: Caco-2
[3] = biological target: T1, G-protein coupled bile acid receptor 1 (Mus musculus, UniProt Q80SS6); assay: Agonist activity at mouse TGR5 expressed in HEK293 cells co-expressing CRE after 5.5 hrs by luciferase reporter gene assay; type: functional, cell-based
T1 sequence (Q80SS6 whole entry): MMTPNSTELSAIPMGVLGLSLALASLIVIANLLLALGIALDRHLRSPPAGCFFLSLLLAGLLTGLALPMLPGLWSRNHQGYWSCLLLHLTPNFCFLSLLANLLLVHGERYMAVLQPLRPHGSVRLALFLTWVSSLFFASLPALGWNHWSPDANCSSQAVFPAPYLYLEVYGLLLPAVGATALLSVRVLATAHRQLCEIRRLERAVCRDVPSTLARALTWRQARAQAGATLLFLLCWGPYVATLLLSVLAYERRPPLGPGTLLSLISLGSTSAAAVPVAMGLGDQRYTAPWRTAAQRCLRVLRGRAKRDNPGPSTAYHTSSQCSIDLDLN

[4] = Apparent permeability of the compound from apical to basolateral side of human Caco2 cells up to 95 mins by LC-MS/MS analysis; settings: Caco-2
[5] = biological target: T2, G-protein coupled bile acid receptor 1 (Homo sapiens, UniProt Q8TDU6); assay: Agonist activity at human TGR5 expressed in HEK293 cells co-expressing CRE after 5.5 hrs by luciferase reporter gene assay; type: functional, cell-based
T2 sequence (Q8TDU6 whole entry): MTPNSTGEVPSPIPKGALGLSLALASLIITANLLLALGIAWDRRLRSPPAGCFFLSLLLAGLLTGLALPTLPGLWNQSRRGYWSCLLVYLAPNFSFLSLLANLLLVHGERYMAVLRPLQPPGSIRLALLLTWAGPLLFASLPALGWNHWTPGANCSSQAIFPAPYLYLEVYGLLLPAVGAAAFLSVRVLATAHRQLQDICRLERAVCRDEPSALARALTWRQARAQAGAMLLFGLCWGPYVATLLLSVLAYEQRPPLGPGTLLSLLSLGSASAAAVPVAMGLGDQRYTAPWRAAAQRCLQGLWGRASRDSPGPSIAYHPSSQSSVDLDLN

[6] = Ratio of plasma concentration in ICR mouse plasma at 50 mg/kg, po after 3 hrs to EC50 for mouse TGR5 expressed in HEK293 cells; type: ADME, organism-based; set-up: dose 50 mg/kg, route oral; settings: in vivo
Nucleic Acid [7] = assay: Ratio of drug level in ICR mouse bile at 50 mg/kg, po after 3 hrs to EC50 for mouse TGR5 expressed in HEK293 cells; type: organism-based; set-up: dose 50 mg/kg
Nucleic Acid [8] = assay: Ratio of drug level in ICR mouse gallbladder at 50 mg/kg, po after 3 hrs to EC50 for mouse TGR5 expressed in HEK293 cells; type: organism-based; set-up: dose 50 mg/kg
Mus musculus [9] = assay: Gallbladder toxicity in ICR mouse assessed as increase of gallbladder volume at 50 mg/kg, po after 3 hrs; type: organism-based; set-up: dose 50 mg/kg, route oral; settings: in vivo
[10] = Drug level in ICR mouse bile at 50 mg/kg, po after 3 hrs by LC-MS/MS analysis; type: ADME, organism-based; set-up: dose 50 mg/kg, route oral; settings: read-out: Drug uptake
[11] = Drug level in ICR mouse gallbladder at 50 mg/kg, po after 3 hrs by LC-MS/MS analysis; type: ADME, organism-based, Gall bladder; set-up: dose 50 mg/kg, route oral; settings: read-out: Drug uptake
[12] = Drug level in ICR mouse blood at 50 mg/kg, po after 3 hrs by LC-MS/MS analysis; type: ADME, organism-based; set-up: dose 50 mg/kg, route oral; settings: read-out: Drug uptake
Mus musculus [13] = assay: Antidiabetic activity in oral glucose loaded ICR mouse assessed as reduction of AUC (0 to 120 mins) of blood glucose level at 50 mg/kg, po by oral glucose tolerance test; type: functional; set-up: scale not given: the % may be the effect or the level left
[14] = biological target: T2, G-protein coupled bile acid receptor 1; assay: Agonist activity at human TGR5
[15] = biological target: T3, G-protein coupled bile acid receptor 1 (Homo sapiens) (UniProt Q8TDU6); assay: Agonist activity at human TGR5 expressed in HEK293 cells co-expressing CRE at 1 uM after 5.5 hrs by luciferase reporter gene assay; type: functional, cell-based
T3 sequence (whole entry): T2 sequence (Q8TDU6 whole entry)

Compound | EC50 [3] [nM] | EC50 [5] [nM] | other results
Cc1noc2cc(Oc3ccncc3C(=O)N3CCN(C4CC4)c4ccccc43)ccc12 |  | 240 | 
CC(=O)c1cc(C(=O)N2CCN(C3CC3)c3ccccc32)ccc1O |  |  | EC50 ([14]; read-out: EC50): 2.3 nM
O=C(c1cnccc1Oc1ccc2[nH]ccc2c1)N1CCN(C2CC2)c2ccccc21 |  | 1220 | 
O=C(O)c1coc2cc(Cl)c(Oc3ccncc3C(=O)N3CCN(C4CC4)c4ccccc43)cc12 |  |  | Activity [15]: 38%
O=C(c1cnccc1Oc1cccc2[nH]ccc12)N1CCN(C2CC2)c2ccccc21 |  | 148 | 
CCOC(=O)CNC(=O)c1oc2cc(Cl)c(Oc3ccncc3C(=O)N3CCN(C4CC4)c4ccccc43)cc2c1C |  | 78 | 
CCOC(=O)CNC(=O)c1coc2cc(Cl)c(Oc3ccncc3C(=O)N3CCN(C4CC4)c4ccccc43)cc12 |  | 1400 | 
O=C(c1cnccc1Oc1cccc2cccnc12)N1CCN(C2CC2)c2ccccc21 |  | 178 | 
CC(=O)c1cccc(Oc2ccncc2C(=O)N2CCN(C3CC3)c3ccccc32)c1 |  |  | EC50 ([14]; read-out: EC50): 5.5 nM
CCOC(=O)CNC(=O)CCc1coc2cc(Cl)c(Oc3ccncc3C(=O)N3CCN(C4CC4)c4ccccc43)cc12 |  | 119 | 
CCOC(=O)CNC(=O)Cc1coc2cc(Cl)c(Oc3ccncc3C(=O)N3CCN(C4CC4)c4ccccc43)cc12 |  | 520 | 
O=C(c1cnccc1Oc1ccc2cc[nH]c2c1)N1CCN(C2CC2)c2ccccc21 |  | 162 | 
O=C(c1cnccc1Oc1ccc(O)cc1)N1CCN(C2CC2)c2ccccc21 |  |  | EC50 [14]: Not Active
Cc1c(C(=O)O)oc2cc(Cl)c(Oc3ccncc3C(=O)N3CCN(C4CC4)c4ccccc43)cc12 |  | 63 | 
O=C(c1cnccc1Oc1ccc2ncccc2c1)N1CCN(C2CC2)c2ccccc21 |  | 64 | 
O=C(O)Cc1coc2cc(Cl)c(Oc3ccncc3C(=O)N3CCN(C4CC4)c4ccccc43)cc12 |  | 1360 | 
O=C(O)CCc1coc2cc(Cl)c(Oc3ccncc3C(=O)N3CCN(C4CC4)c4ccccc43)cc12 |  | 675 | 

Continued, in another order:

EC50 [3] [nM] | EC50 [5] [nM] | Compound | other results
6.1 | 8.5 | CCOC(=O)CNC(=O)/C=C/c1oc2ccc(Cl)c(Oc3ccncc3C(=O)N3CCN(C4CC4)c4ccccc43)c2c1C | efflux ratio at 95 min [1]: 0.48; Papp B→A at 95 min [2]: 0.5 ×10⁻⁶ cm/s; Papp A→B at 95 min [4]: 1.04 ×10⁻⁶ cm/s
82 | 24 | COC(=O)CCc1coc2cc(Cl)c(Oc3ccncc3C(=O)N3CCN(C4CC4)c4ccccc43)cc12 | 
0.92 | 0.28 | Cc1coc2cc(Cl)c(Oc3ccncc3C(=O)N3CCN(C4CC4)c4ccccc43)cc12 | efflux ratio at 95 min [1]: 0.71; Papp B→A at 95 min [2]: 1.5 ×10⁻⁶ cm/s; Ratio [6]: 153; Ratio (Nucleic Acid [7]): 1030; Ratio (Nucleic Acid [8]): 891; Activity (Mus musculus [9]): 97%; Papp A→B at 95 min [4]: 2.1 ×10⁻⁶ cm/s; concentration at 3 h [10]: 438 ng/mL; concentration at 3 h [11]: 410 ng/mL; concentration at 3 h [12]: 65 ng/mL; Activity (Mus musculus [13]): 33%
38 | 5.2 | CCOC(=O)Cc1coc2cc(Cl)c(Oc3ccncc3C(=O)N3CCN(C4CC4)c4ccccc43)cc12 | 
28 | 10.7 | O=C(c1cnccc1Oc1ccc2occc2c1)N1CCN(C2CC2)c2ccccc21 | 
39 | 1.7 | CCOC(=O)c1coc2cc(Cl)c(Oc3ccncc3C(=O)N3CCN(C4CC4)c4ccccc43)cc12 | 
60 | 15 | O=C(c1cnccc1Oc1ccc2ncsc2c1)N1CCN(C2CC2)c2ccccc21 | 
52 | 16 | O=C(c1cnccc1Oc1ccc2sccc2c1)N1CCN(C2CC2)c2ccccc21 | 
 | 38 | CCOC(=O)c1oc2cc(Cl)c(Oc3ccncc3C(=O)N3CCN(C4CC4)c4ccccc43)cc2c1C | 
66 | 7.7 | Cc1c(Br)oc2cc(Cl)c(Oc3ccncc3C(=O)N3CCN(C4CC4)c4ccccc43)cc12 | 
18 | 25 | Cc1c(/C=C/C(=O)O)oc2ccc(Cl)c(Oc3ccncc3C(=O)N3CCN(C4CC4)c4ccccc43)c12 | 
 | 40 | O=C(c1cnccc1Oc1cccc2ncccc12)N1CCN(C2CC2)c2ccccc21 | 
2.4 | 0.45 | Cc1coc2ccc(Oc3ccncc3C(=O)N3CCN(C4CC4)c4ccccc43)cc12 | 
16 | 8.9 | CCOC(=O)/C=C/c1oc2ccc(Cl)c(Oc3ccncc3C(=O)N3CCN(C4CC4)c4ccccc43)c2c1C | 
 | 41 | O=C(c1cnccc1Oc1ccc2ccccc2c1)N1CCN(C2CC2)c2ccccc21 | 
85 | 30 | CCOC(=O)CNC(=O)CCc1oc2ccc(Cl)c(Oc3ccncc3C(=O)N3CCN(C4CC4)c4ccccc43)c2c1C | 
10 | 1.4 | O=C(c1cnccc1Oc1cc2ccoc2cc1Cl)N1CCN(C2CC2)c2ccccc21 | 
5.5 | 1.5 | Cc1noc2ccc(Oc3ccncc3C(=O)N3CCN(C4CC4)c4ccccc43)cc12 | 
43 | 25 | O=C(c1cnccc1Oc1ccc2ccoc2c1)N1CCN(C2CC2)c2ccccc21 | 
101 | 35 | Cc1c(CCC(=O)O)oc2ccc(Cl)c(Oc3ccncc3C(=O)N3CCN(C4CC4)c4ccccc43)c12 | 
66 | 17 | O=C(c1cnccc1Oc1cccc2ccccc12)N1CCN(C2CC2)c2ccccc21 | 
 | 59 | O=C(c1cnccc1Oc1ccc2cccnc2c1)N1CCN(C2CC2)c2ccccc21 | 
72 | 18 | CCOC(=O)CCc1oc2ccc(Cl)c(Oc3ccncc3C(=O)N3CCN(C4CC4)c4ccccc43)c2c1C | 
